This is an account of results in patent US9307763B2, “Ligands for odor receptors and olfactory neurons” (The Regents of the University of California, priority 2010, dated 2016).

The target of one assay is T1, Or82a (Drosophila melanogaster, UniProt P82986).
T1 sequence (P82986 1-385): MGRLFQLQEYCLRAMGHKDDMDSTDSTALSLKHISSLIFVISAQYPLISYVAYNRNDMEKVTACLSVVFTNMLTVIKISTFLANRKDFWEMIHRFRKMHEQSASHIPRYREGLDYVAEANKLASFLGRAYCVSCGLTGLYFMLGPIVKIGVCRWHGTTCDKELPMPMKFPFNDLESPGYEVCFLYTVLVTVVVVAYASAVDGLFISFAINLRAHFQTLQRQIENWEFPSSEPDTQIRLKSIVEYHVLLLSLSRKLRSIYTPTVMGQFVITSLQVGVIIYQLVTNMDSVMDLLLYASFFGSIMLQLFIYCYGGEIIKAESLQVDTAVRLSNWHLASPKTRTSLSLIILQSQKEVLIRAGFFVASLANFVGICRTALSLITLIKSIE
T1 sequence (Q9VNB5 1-486 partner): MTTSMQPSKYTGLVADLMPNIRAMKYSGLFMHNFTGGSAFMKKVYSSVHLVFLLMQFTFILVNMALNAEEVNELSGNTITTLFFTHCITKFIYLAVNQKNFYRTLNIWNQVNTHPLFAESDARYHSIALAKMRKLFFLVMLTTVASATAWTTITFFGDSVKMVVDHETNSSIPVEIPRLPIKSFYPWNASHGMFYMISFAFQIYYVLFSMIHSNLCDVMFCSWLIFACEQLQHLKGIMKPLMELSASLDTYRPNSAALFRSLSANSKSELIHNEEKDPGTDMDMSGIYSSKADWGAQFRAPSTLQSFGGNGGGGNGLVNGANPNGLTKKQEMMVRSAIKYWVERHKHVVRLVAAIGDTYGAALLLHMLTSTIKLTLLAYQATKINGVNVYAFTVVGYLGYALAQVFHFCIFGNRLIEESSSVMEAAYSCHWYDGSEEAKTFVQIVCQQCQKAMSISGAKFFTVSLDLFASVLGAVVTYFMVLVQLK
Test: not given
As to conditions: single strong ligand of the training set; cited from earlier work.
`CC(=O)OC/C=C(\C)CCC=C(C)C` [geranyl acetate, reference compound]: the “activation of Or82a” value is “activated strongly”.

A further assay has as its system CO2 responsive neurons.
Test: not given
As to conditions: […]; averaged across the top 2 responders of the 4 species; cited from earlier work.
As to `CC(=O)OC/C=C(\C)CCC=C(C)C` [geranyl acetate, reference compound], the “Final Activity” value is reported as 0.
On to `CCC=O` [propionaldehyde], for which the “Final Activity” value was −68.
Turning to `CC(=O)c1ccccc1` [Phenylethanone], the “Final Activity” value is 5.
Regarding `C=CC(O)CCCCC` (stereo not drawn) [1-octen-3-ol], the “Final Activity” value is on record as −27.
Regarding `CCC(=O)O` [propionic acid], the “Final Activity” value is recorded as −32.
As to `CCCCC(C)O` (stereo not drawn) [2-hexanol], the “Final Activity” value was 2.
Regarding `CCCCCO` [pentanol], the “Final Activity” value was −41.
With `CCCC(=O)O` [butyric acid], the “Final Activity” value is −94.
Regarding `O=C(c1ccccc1)c1ccccc1` [Benzophenone], the “Final Activity” value was 8.

For another assay, the target named is T2, Or59b, ab2A (Drosophila melanogaster, UniProt Q9W1P8).
T2 construct: The 9 Ors tested are expressed in well-defined olfactory receptor neurons (ORNs) housed within the large and small basiconic sensilla; from tissue; host or cells: D. melanogaster antenna, ab2A olfactory receptor neuron (in vivo recording)
T2 sequence (Q9W1P8 1-398): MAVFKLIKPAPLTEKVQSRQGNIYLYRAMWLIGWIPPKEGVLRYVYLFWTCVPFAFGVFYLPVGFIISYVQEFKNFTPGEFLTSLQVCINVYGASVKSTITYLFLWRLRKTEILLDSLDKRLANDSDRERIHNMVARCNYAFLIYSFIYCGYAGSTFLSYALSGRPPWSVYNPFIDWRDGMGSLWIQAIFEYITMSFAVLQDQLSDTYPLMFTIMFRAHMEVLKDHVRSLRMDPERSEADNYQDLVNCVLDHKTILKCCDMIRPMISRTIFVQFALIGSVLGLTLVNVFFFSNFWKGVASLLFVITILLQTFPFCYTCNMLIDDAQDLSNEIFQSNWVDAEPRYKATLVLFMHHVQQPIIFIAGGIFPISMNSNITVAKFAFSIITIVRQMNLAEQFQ
T2 sequence (Q9VNB5 1-486 partner): T1 sequence (Q9VNB5 1-486 partner)
Nature of the assay: single-sensillum electrophysiology. It counts as in vivo. As to conditions: odorant at 10^-2. As to the method:
(§1) The results of the in silico screen are provocative. However in order to verify whether these predictions were meaningful, functional evidence was obtained. In order to validate the success of the in silico predictions the responses of 9 Odor receptors using single-sensillum electrophysiology directly on the Drosophila melanogaster antenna were analyzed. For each Odor receptor several odorants were tested from the top 500 predicted hits. A sampling of ˜192 novel odorants were tested with ˜11-21 novel odorants tested for each receptor, which were scattered somewhat randomly within the top 500 predictions for each receptor, providing a relatively unbiased set of chemical structures.
(§2) To test identified compounds any number of biological assays can be used to measure ORN activity in the presence of a putative ligand/compounds. […] For the purpose of testing each of these volatile compounds the compounds were diluted to ˜10^−2 in paraffin oil or distilled water. The 9 Ors tested are expressed in well-defined olfactory receptor neurons (ORNs) housed within the large and small basiconic sensilla (ab1-ab7) on the antenna. A previously identified diagnostic panel of odorants was used to distinguish individual classes of sensilla (ab1-ab7) and therefore identified the sensilla that contained the target Or expressing ORN. […]
On to `CC(=O)OC(C)C` [isopropyl acetate], for which the “activation of odor receptor (firing rate)” value is listed as > 250 spikes/sec.

Another assay concerns the target T3, Or98a, ab7A (Drosophila melanogaster, UniProt Q9VAZ3).
T3 construct: The 9 Ors tested are expressed in well-defined olfactory receptor neurons (ORNs) housed within the large and small basiconic sensilla; from tissue; host or cells: D. melanogaster antenna, ab7A olfactory receptor neuron (in vivo recording)
T3 sequence (Q9VAZ3 1-397): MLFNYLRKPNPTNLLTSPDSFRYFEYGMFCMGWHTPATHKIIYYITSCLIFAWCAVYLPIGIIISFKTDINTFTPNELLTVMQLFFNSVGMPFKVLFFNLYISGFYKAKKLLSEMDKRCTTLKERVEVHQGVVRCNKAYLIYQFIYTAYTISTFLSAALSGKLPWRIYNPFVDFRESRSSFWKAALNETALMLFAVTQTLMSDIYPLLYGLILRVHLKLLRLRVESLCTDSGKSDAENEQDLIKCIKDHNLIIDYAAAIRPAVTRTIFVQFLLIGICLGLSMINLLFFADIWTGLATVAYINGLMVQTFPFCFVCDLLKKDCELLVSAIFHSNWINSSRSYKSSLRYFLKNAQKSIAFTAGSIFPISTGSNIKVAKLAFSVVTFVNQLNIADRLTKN
T3 sequence (Q9VNB5 1-486 partner): T1 sequence (Q9VNB5 1-486 partner)
Nature of the assay: single-sensillum electrophysiology. It counts as in vivo. As to conditions: odorant at 10^-2. How it is done: as §1, §2
As to `CC(=O)OCC=C(C)C` [prenyl acetate], the “activation of odor receptor (firing rate)” value is > 250 spikes/sec.
